According to the OPERA property sets (Mansouri et al. 2018):

Conditions: for log10 BCF / log10 biotransformation half-life (days): fish

Row | SMILES | boiling point | melting point | also measured
1 | FC(F)=CCl | -18.5 °C | -138 °C | log10 vapour pressure (mmHg): 3.55
2 | CCCCOCN(C(=O)CCl)c1c(CC)cccc1CC | – | -2.8 °C | log10 Henry constant (atm·m³/mol): -7.29; log10 Koc (L/kg): 2.86; log10 vapour pressure (mmHg): -5.54
3 | CCCCOCCCC | 141 °C | – | log10 Henry constant (atm·m³/mol): -2.22; log10 Koa: 3.89; log10 vapour pressure (mmHg): 0.779; ready biodegradability: not readily biodegradable; log10 BCF: 1.86; log10 biotransformation half-life (days): -0.25
4 | CCCCOCC(C)C | 151 °C | – | –
5 | CCOC(=O)CCCCCBr | – | 33 °C | –
6 | Cc1ccc(Nc2ccc(Nc3ccc(C)cc3)c3c2C(=O)c2ccccc2C3=O)cc1 | – | 218 °C | –
7 | CCCCCCCCCCCCCCCCCCCCCCO | – | 72.5 °C | –
8 | Nc1ccc(-c2ccc(N)c(Cl)c2)cc1Cl | 368 °C | 132 °C | log10 Koc (L/kg): 4.35; ready biodegradability: not readily biodegradable; log10 BCF: 2.16; log10 biotransformation half-life (days): -0.13
9 | CCCCCCCCCCCCOP(=O)(O)O | – | – | ready biodegradability: readily biodegradable
10 | C[Si](C)(C)Cc1ccccc1 | 190 °C | – | –
11 | Cc1cc([N+](=O)[O-])ccc1Cl | 249 °C | 42.5 °C | –
12 | CCCCCCCCC#CCCCCCCCC(=O)O | – | 48 °C | –
13 | ClC(C(Cl)(Cl)Cl)C(Cl)(Cl)Cl | 249 °C | 11 °C | –
14 | O=C1CCCCCC1c1ccccc1 (centres undefined) | – | 22.2 °C | –
15 | O[C@@H](c1ccccc1)[C@@H](O)c1ccccc1 | – | 138 °C | –
16 | Cc1ccccc1N1C(=O)c2cc(S(N)(=O)=O)c(Cl)cc2NC1C (centres undefined) | – | 256 °C | –
17 | C[C@]12CC[C@@H]3c4ccc(O)cc4CC[C@H]3[C@@H]1C[C@@H](O)[C@@H]2O | – | 282 °C | –
18 | Nc1ncnc2c1ncn2[C@@H]1O[C@H](CO)C[C@H]1O | – | 226 °C | –
19 | C/C(=N/Nc1nc(C)cc(C)n1)c1ccccc1C | – | 176 °C | log10 vapour pressure (mmHg): -7.51
20 | C=CC(C)C(C)O (centres undefined) | 126 °C | – | –
21 | CC(CCO)CC(F)(F)F (centres undefined) | 159 °C | – | –

Row | SMILES | boiling point | melting point | also measured
22 | O=C(Nc1ccccc1)NC1CCCCCC1 | – | – | log10 Koc (L/kg): 2.37
23 | OCC(O)c1ccccc1 (centres undefined) | 273 °C | 67.5 °C | –
24 | Cl.Cl.NCCc1c[nH]cn1 | – | 250 °C | –
25 | Cc1ccc(C(=O)COc2c(C(=O)c3ccc(Cl)c(C)c3Cl)c(C)nn2C)cc1 | – | 133 °C | log10 vapour pressure (mmHg): -7.01
26 | N#CCC=CCC#N | – | 76 °C | log10 vapour pressure (mmHg): -2.16
27 | CNc1ccc(N)cc1 | 258 °C | 36 °C | –
28 | Nc1ccc(S(=O)(=O)Nc2ccc(Cl)nn2)cc1 | – | 187 °C | –
29 | CCCCCCCCCCCCCCCC(C)C | 311 °C | 5.7 °C | –
30 | COc1cccc(-c2cccc(OC)c2)c1 | 328 °C | 36 °C | –
31 | FC(=C(F)C(F)(F)F)C(F)(F)F | 1.5 °C | -129 °C | log10 vapour pressure (mmHg): 3.3
32 | Cl.NCC(F)(F)F | – | 195 °C | –
33 | CCC(C)(C)c1ccc(O)cc1 | 262 °C | 95 °C | log10 vapour pressure (mmHg): -2.7
34 | Oc1ccc(O)c(-c2ccccc2)c1 | – | 102 °C | –
35 | CCOC(=O)c1c(N)sc2c1CCN(Cc1ccccc1)C2 | – | 112 °C | –
36 | OCCc1c[nH]c2ccccc12 | – | 59 °C | –
37 | CC12CCC(CC1)C2(C)C | 161 °C | 158 °C | –
38 | C1CCCNCC1 | 138 °C | – | log10 Henry constant (atm·m³/mol): -5.21; log10 vapour pressure (mmHg): 0.908
39 | Cc1ccnc(C)c1 | 158 °C | -64 °C | log10 Henry constant (atm·m³/mol): -5.17; log10 vapour pressure (mmHg): 0.5; ready biodegradability: readily biodegradable
40 | COc1cc2c(cc1OC)C(CCc1ccc(Cl)cc1)N(C)CC2 (centres undefined) | – | 110 °C | –
41 | CC1=C(C(=O)O)N2C(=O)[C@@H](NC(=O)[C@H](N)C3=CCC=CC3)[C@H]2SC1 | – | 140 °C | –
42 | C1O[C@@H]1[C@@H]1CO1 | 144 °C | 3.5 °C | –

Row | SMILES | boiling point | melting point | also measured
43 | O=C(O)CCCl | 156 °C | 41 °C | –
44 | COP(=S)(OC)Oc1ccc([N+](=O)[O-])cc1 | – | 35.5 °C | log10 Henry constant (atm·m³/mol): -7; log10 Koc (L/kg): 3; log10 vapour pressure (mmHg): -5.46; log10 BCF: 1.93; log10 biotransformation half-life (days): 0.55
45 | CCOC(=O)C#N | 116 °C | – | –
46 | CC1CCOS(=O)O1 (centres undefined) | 185 °C | 5 °C | –
47 | COCC(C)Cl (centres undefined) | 99 °C | – | –
48 | CCC(O)(CC)C(C)C | 160 °C | – | –
49 | CN(C)C(=O)N(C(=O)c1ccccc1)c1ccc(Cl)c(Cl)c1 | – | 119 °C | –
50 | ClC(Cl)=C(Cl)c1c(Cl)c(Cl)c(Cl)c(Cl)c1Cl | – | – | log10 BCF: 3.91; log10 biotransformation half-life (days): 2.04
51 | CCCCN=C=S | 168 °C | – | –
52 | CCCCC(C)Br (centres undefined) | 144 °C | – | log10 vapour pressure (mmHg): 0.86
53 | O=C1OC(C(O)CO)C(O)=C1O (centres undefined) | – | 168 °C | –
54 | CCSCCSCC | 217 °C | 180 °C | –
55 | CCOc1ccc(Br)cc1 | 231 °C | 4 °C | –
56 | C=CC#CCC | 85 °C | – | –
57 | C=Cc1c(C)cc(C)cc1C | 209 °C | -37 °C | –
58 | NC(=S)Nc1ccccc1 | – | 154 °C | –
59 | CCCCC(C)(C)CCC | 158 °C | – | –
60 | COCC(=O)N(c1c(C)cccc1C)N1CCOC1=O | – | 104 °C | log10 vapour pressure (mmHg): -7.61
61 | CCOP(=O)(OCC)SCCSCC | – | – | log10 Koc (L/kg): 1.85
62 | Cc1ccc[nH]1 | 147 °C | -35.6 °C | –
63 | O=C(O)c1cccc2c(Cl)cccc12 | – | 245 °C | –
